From US10836720B2, “Inhibitors of integrin alpha 5 beta 1 and methods of use” (The Regents of the University of California, priority 2016, dated 2020) come the findings set out here.

Each structure is given as a SMILES string.

One experiment addresses alphavbeta1 (Homo sapiens, UniProt G3HZ55+P06756). The experiment in a line: Cell adhesion assay, alphavbeta1-mediated (CHO cells transfected with human alphav adhering to the latency associated peptide of TGF-beta). Conditions: adhesion to LAP of TGF-beta. The class given is cell-based. On the procedure:
The blockade of integrin alpha 5 beta 1 provides a novel target for the treatment of asthma. […] The intracellular actin-myosin cross-bridging pathway serves as a useful target. Modulating the interactions of the cell and the extracellular matrix impairs the ability of the smooth muscle to transmit tension effectively. The blockade of integrin alpha 5 beta 1 was tested in vitro with human cell lines as well as in vivo with a mouse model of airway hyperresponsiveness. Novel compounds as described herein, and identified in Table 1, have been synthesized and tested in vitro for their ability to inhibit cell adhesion mediated by either alpha5beta1 (adhesion of the colon carcinoma cell line SW480 to fibronectin, a response that is entirely dependent on binding of alpha5beta1 to fibronectin), or alphavbeta1 (adhesion of Chinese Hamster Ovary cells transfected with human alphav to the latency associated peptide of transforming growth factor beta, a response that is entirely dependent on binding of alphavbeta1 to LAP).

For a further experiment, the target named is alpha5beta1 (Homo sapiens (Human), UniProt P05556+P08648). The experiment in a line: Cell adhesion assay, alpha5beta1-mediated (colon carcinoma cell line SW480 adhering to fibronectin). Conditions: SW480 cells. The experiment is classed as cell-based. On the procedure: The blockade of integrin alpha 5 beta 1 was tested in vitro with human cell lines as well as in vivo with a mouse model of airway hyperresponsiveness.
Chain of alpha5beta1 (P08648 42-894): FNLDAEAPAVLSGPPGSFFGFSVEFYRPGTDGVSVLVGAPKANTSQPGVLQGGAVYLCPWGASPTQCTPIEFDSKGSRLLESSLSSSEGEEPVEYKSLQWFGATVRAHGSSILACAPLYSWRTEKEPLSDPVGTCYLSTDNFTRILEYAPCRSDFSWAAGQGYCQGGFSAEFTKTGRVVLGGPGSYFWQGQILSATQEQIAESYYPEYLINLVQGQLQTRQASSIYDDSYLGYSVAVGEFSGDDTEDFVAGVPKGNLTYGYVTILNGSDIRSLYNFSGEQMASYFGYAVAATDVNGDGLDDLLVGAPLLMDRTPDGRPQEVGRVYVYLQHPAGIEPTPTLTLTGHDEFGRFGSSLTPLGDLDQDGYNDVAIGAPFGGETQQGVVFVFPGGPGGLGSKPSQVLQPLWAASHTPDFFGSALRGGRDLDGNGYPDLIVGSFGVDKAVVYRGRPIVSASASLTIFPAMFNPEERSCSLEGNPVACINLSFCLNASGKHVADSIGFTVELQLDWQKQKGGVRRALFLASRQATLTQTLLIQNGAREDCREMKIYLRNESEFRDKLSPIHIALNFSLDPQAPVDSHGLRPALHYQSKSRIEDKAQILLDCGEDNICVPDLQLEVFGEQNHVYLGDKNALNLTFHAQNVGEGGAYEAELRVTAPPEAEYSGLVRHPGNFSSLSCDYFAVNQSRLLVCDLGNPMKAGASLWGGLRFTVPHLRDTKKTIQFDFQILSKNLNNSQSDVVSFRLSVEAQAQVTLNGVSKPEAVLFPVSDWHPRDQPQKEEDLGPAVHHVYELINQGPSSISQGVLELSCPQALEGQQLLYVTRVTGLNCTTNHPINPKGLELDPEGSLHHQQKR
Chain of alpha5beta1 (P08648 895-1049): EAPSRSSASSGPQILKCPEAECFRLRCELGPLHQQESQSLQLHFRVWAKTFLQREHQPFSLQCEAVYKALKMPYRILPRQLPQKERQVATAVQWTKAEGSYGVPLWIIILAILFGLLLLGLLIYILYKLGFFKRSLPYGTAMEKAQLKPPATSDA
Chain of alpha5beta1 (P05556 21-798): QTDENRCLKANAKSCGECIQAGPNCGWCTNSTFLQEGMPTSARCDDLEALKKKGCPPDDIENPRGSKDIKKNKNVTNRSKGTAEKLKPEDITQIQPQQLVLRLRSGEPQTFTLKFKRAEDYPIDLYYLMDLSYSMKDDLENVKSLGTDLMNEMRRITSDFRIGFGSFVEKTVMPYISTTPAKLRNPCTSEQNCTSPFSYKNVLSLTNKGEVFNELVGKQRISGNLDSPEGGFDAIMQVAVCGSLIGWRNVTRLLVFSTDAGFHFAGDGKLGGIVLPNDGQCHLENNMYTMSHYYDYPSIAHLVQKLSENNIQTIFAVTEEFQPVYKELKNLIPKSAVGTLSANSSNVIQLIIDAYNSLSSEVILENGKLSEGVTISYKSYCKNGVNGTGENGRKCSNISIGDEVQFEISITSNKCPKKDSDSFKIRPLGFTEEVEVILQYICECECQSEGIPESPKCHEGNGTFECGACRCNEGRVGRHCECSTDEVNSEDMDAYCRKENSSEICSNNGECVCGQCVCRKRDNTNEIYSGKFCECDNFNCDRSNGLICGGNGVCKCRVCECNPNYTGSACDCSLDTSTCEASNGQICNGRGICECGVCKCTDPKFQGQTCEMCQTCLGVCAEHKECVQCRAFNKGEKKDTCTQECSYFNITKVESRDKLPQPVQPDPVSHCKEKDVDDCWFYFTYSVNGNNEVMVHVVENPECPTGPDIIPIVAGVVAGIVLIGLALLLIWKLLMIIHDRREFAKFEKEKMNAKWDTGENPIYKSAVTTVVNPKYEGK

Chain of alphavbeta1 (G3HZ55 21-798 limits assumed): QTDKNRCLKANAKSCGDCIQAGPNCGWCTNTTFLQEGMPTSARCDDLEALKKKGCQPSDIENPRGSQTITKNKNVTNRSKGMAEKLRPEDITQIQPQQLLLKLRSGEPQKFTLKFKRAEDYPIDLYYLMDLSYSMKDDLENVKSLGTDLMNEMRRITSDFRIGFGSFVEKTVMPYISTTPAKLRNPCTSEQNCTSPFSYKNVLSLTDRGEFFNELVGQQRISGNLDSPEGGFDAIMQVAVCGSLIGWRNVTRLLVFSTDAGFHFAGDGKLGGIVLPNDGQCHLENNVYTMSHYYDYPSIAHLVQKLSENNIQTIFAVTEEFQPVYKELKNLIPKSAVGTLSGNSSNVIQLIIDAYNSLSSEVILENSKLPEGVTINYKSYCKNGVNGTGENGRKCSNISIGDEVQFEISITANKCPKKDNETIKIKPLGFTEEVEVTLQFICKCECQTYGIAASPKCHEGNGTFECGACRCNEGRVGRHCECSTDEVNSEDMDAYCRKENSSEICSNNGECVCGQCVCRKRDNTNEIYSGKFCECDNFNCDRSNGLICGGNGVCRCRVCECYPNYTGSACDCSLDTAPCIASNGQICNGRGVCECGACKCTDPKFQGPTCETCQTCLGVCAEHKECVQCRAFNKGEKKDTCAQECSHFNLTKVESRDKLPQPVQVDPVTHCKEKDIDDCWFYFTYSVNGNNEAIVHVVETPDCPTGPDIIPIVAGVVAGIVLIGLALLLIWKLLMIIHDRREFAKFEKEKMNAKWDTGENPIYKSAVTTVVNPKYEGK
Chain of alphavbeta1 (P06756 31-889 limits assumed): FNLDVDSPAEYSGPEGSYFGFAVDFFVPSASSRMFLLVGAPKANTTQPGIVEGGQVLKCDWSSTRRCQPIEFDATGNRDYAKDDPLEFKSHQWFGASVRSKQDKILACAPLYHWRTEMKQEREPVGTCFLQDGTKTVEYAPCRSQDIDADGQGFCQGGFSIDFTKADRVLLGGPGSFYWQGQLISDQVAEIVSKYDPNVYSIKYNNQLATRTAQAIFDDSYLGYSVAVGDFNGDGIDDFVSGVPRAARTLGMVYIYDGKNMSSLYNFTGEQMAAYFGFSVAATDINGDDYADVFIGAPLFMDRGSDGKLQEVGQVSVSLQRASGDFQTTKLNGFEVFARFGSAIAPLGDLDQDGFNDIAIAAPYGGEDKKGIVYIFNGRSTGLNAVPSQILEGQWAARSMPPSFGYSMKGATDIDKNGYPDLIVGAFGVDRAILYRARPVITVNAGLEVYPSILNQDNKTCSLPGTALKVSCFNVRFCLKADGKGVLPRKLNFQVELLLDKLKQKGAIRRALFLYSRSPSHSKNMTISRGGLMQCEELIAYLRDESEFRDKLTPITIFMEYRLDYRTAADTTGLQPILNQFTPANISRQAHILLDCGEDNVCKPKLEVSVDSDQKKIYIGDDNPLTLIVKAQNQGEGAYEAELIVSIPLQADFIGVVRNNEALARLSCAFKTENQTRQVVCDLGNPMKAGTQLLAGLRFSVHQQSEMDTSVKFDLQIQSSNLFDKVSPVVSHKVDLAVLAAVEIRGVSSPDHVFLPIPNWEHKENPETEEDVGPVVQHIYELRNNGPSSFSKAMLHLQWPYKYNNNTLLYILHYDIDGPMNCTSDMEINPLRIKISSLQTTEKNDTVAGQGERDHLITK
Chain of alphavbeta1 (P06756 891-1048 limits assumed): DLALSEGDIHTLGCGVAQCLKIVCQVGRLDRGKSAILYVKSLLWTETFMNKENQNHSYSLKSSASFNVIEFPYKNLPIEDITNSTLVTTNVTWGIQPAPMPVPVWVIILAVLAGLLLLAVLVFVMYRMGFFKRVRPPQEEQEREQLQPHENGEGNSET

In the case of `O=C(CNC(=O)c1cccc(Nc2ccccn2)c1)NC[C@H](NC(=O)[C@@H]1CCCN1S(=O)(=O)c1ccccc1)C(=O)O` [HIJ-1093], the concentration for half-maximal inhibition (IC50) against alphavbeta1 and against alpha5beta1 was 100 to 10000 nM in each case.

With `N=C(N)Nc1cccc(C(=O)NNC(=O)NC[C@H](NC(=O)[C@@H]2CCCN2S(=O)(=O)c2ccccc2)C(=O)O)c1` [HIJ-1099, (S)-3-(2-(3-guanidinobenzoyl)hydrazine-1-carboxamido)-2-((S)-1-(phenylsulfonyl)pyrrolidine-2-carboxamido)propanoic acid], the figures for the IC50 against alphavbeta1 and against alpha5beta1 were 100 to 10000 nM and under 100 nM, respectively. The corresponding values for `N=C(N)NCCCCCNC(=O)NC[C@H](NC(=O)[C@@H]1CCCN1S(=O)(=O)c1ccccc1)C(=O)O` [HIJ-1017, (S)-3-(3-(5-guanidinopentyl)ureido)-2-((S)-1-(phenylsulfonyl)pyrrolidine-2-carboxamido)propanoic acid] are under 100 nM and 100 to 10000 nM. With `N=C(N)Nc1cccc(C(=O)NCC(=O)NC[C@H](NC(=O)[C@@H]2CCCN2S(=O)(=O)c2ccccc2)C(=O)O)c1` [HIJ-1094, (S)-3-(2-(3-guanidinobenzamido)acetamido)-2-((S)-1-(phenylsulfonyl)pyrrolidine-2-carboxamido)propanoic acid], the concentration for half-maximal inhibition (IC50) at alphavbeta1 and against alpha5beta1 was under 100 nM each time. For the molecule `N=C(N)Nc1cc(NC(=O)CCCN)cc(C(=O)NCC(=O)NC[C@H](NC(=O)[C@@H]2CCCN2S(=O)(=O)c2ccccc2)C(=O)O)c1` [HIJ-1437, (S)-3-(2-(3-(4-aminobutanamido)-5-guanidinobenzamido)acetamido)-2-((S)-1-(phenylsulfonyl)pyrrolidine-2-carboxamido)propanoic acid], the IC50 (as a rule, the midpoint of a concentration-inhibition curve) on alpha5beta1 is under 100 nM.

With `N=C(N)NCCCCCC(=O)NC[C@H](NC(=O)[C@@H]1CCCN1S(=O)(=O)c1ccccc1)C(=O)O` [HIJ-1083, (S)-3-(6-guanidinohexanamido)-2-((S)-1-(phenylsulfonyl)pyrrolidine-2-carboxamido)propanoic acid], the 50% inhibitory concentration (IC50) against alphavbeta1 and on alpha5beta1 was 100 to 10000 nM each time. As for `N=C(N)NCCCCCCNC(=O)NC[C@H](NC(=O)[C@@H]1CCCN1S(=O)(=O)c1ccccc1)C(=O)O` [HIJ-1018, (S)-3-(3-(6-guanidinohexyl)ureido)-2-((S)-1-(phenylsulfonyl)pyrrolidine-2-carboxamido)propanoic acid], the IC50 at alphavbeta1 was under 100 nM; at alpha5beta1, 100 to 10000 nM. The corresponding values for `N=C(N)NCCCCNC(=O)NC[C@H](NC(=O)[C@@H]1CCCN1S(=O)(=O)c1ccccc1)C(=O)O` [HIJ-1016, (S)-3-(3-(4-guanidinobutyl)ureido)-2-((S)-1-(phenylsulfonyl)pyrrolidine-2-carboxamido)propanoic acid] are under 100 nM and 100 to 10000 nM.

On alpha5beta1, `N=C(N)Nc1cc(NC(=O)CCCNC(=O)C23CC4CC(CC(C4)C2)C3)cc(C(=O)NCC(=O)NC[C@H](NC(=O)[C@@H]2CCCN2S(=O)(=O)c2ccccc2)C(=O)O)c1` [HIJ-1483, (2S)-3-(2-(3-(4-((1s,3s)-adamantane-1-carboxamido)butanamido)-5-guanidinobenzamido)acetamido)-2-((S)-1-(phenylsulfonyl)pyrrolidine-2-carboxamido)propanoic acid] showed a concentration for half-maximal inhibition (IC50) of under 100 nM. On to `N=C(N)NCCCCC(=O)N[C@@H](CCCCNC(=S)Nc1ccc(C2c3ccc(O)cc3OC3=CC(=O)C=CC32)c(C(=O)O)c1)C(=O)NC[C@H](NC(=O)[C@@H]1CCCN1S(=O)(=O)c1ccccc1)C(=O)O` (stereo partly drawn) [HIJ-1216, 5-(3-((S)-6-(((S)-2-carboxy-2-((S)-1-(phenylsulfonyl)pyrrolidine-2-carboxamido)ethyl)amino)-5-(5-guanidinopentanamido)-6-oxohexyl)thioureido)-2-(6-hydroxy-3-oxo-9,9a-dihydro-3H-xanthen-9-yl)benzoic acid], for which the half-inhibitory concentration (IC50) against alphavbeta1 and against alpha5beta1 was over 10000 nM in each case.
